According to patent US8663607B2, “Ferrate(VI)-containing compositions and methods of using ferrate(VI)” (Battelle Memorial Institute, priority 2007, dated 2014):

Assays:
[1] = Treatment of unstained HAP disk (staining by the reagent itself); conditions: disk D: unstained disk, 100 μL pH 7 HEPA buffer, 1.3 mg
Method: Tea staining Procedure: A calcium-deficient hydroxyapatite (HAP) disk (Clarkson Chromatography Products) was placed into a 50-mL centrifuge tube with 10 mL of tea solution. The centrifuge tube was gently shaken by hand for 15 minutes. The tea solution was decanted and replaced with 10 mL of HPDI water and vortexed for 30 seconds. The water was decanted and replaced with 10 additional mL of HPDI water and vortexed for 30 seconds. The disk was removed with forceps and patted dry with a tissue. The disk was allowed to air dry at room temperature for at least one hour.
(§1) Oxidation resistant chelating buffer: 0.25M 1-Hydroxyethylidenediphosphonic acid (etridonic acid) (Dequest® 2010, Thermphos) (HEPA) was pH adjusted by microtitration with 10N NaOH. 1.28 g of 1-Hydroxyethylidenediphosphonic acid was to a 25-mL volumetric flask and brought to volume with HPDI water. The solution was transferred to a 50-mL beaker with a stir bar and pH adjusted using 10.04N NaOH, monitored with a calibrated pH meter. Aliquat 336® (Cognis) (also suitable is Aliquat 134®) (N-methyl-tri-(n-octyl)ammonium chloride), (N-methyl TOA) or “HEPA” chelating pH Buffer: 2.5-μL of N-methyl TOA was added to 5 mL of pH 7 HEPA buffer and sonicated for 1 minute. pH 7 Sodium Dodecyl Sulfate (SDS)/HEPA Buffer: 10 mg of SDS was added to 5 mL of pH 7 HEPA buffer and sonicated for 1 minute. pH 8 SDS/HEPA Buffer: 10 mg of SDS was added to 5 mL of pH 8 HEPA buffer and sonicated for 1 minute.
• A. A tea stained disk was placed into the bowl of the bowl of a watch glass and 100 μL of pH 7 HEPA buffer was pipetted onto the disk surface. 3.7 mg of potassium ferrate(VI) was added to the disk surface and mixed gently. […] The disk was rinsed at 10 minutes with HPDI water. […] 1 mL of pH 7 HEPA buffer was added followed by 9 mL of HPDI water. 9.7 mg of potassium ferrate(VI) was added. The tube was gently hand shaken for 10 minutes. The disk was removed and rinsed with HPDI water. […] 10 mg of potassium ferrate(VI) was added to 1 mL of pH 7 HEPA buffer in a 50 mL centrifuge tube. 9 mL HPDI water was added, and the solution was shaken for a few seconds followed by the addition of a tea stained HAP disk. The disk was removed at 10 minutes and rinsed with HPDI water. […] 1.3 mg of potassium ferrate(VI) added and mixed into the solution. […] 1.4 mg of potassium ferrate(VI) was added to the disk surface and mixed gently. […] The reaction was allowed to continue for 5 minutes. […] The disk was rinsed several times with HPDI water. 100 μL of pH 7 HEPA buffer was pipetted onto the disk surface and allowed to react for 5 minutes.

[2] = Stain removal from HAP disk, Cran-Grape juice stain; conditions: disk A-5: Cran-Grape juice stain treated the same way as P and Q (pH 8 SDS/HEPA buffer)
Excerpt: as §1
• A. A tea stained disk was placed into the bowl of the bowl of a watch glass and 100 μL of pH 7 HEPA buffer was pipetted onto the disk surface. 3.7 mg of potassium ferrate(VI) was added to the disk surface and mixed gently. […] The disk was rinsed at 10 minutes with HPDI water. […] 1 mL of pH 7 HEPA buffer was added followed by 9 mL of HPDI water. 9.7 mg of potassium ferrate(VI) was added. The tube was gently hand shaken for 10 minutes. The disk was removed and rinsed with HPDI water. […] 10 mg of potassium ferrate(VI) was added to 1 mL of pH 7 HEPA buffer in a 50 mL centrifuge tube. 9 mL HPDI water was added, and the solution was shaken for a few seconds followed by the addition of a tea stained HAP disk. The disk was removed at 10 minutes and rinsed with HPDI water. […] 1.3 mg of potassium ferrate(VI) added and mixed into the solution. […] 1.4 mg of potassium ferrate(VI) was added to the disk surface and mixed gently. […] The reaction was allowed to continue for 5 minutes. […] The disk was rinsed several times with HPDI water. 100 μL of pH 7 HEPA buffer was pipetted onto the disk surface and allowed to react for 5 minutes. […] 1 mg of potassium ferrate(VI) was added and mixed into the liquid.

[3] = Thermal stability of K2FeO4, cycling temperature profile (AR 70-38); format: physicochemical; conditions: cycling daily from 23° C. to 71° C. and back again
Method: The cycling temperature profile specified in AR 70-38 also was studied. An oven (Fisher Scientific model No. 48) was outfitted with a programmable temperature controller (Omega Engineering model CN3251) and a small fan in order to provide air circulation. Temperature data acquisition was performed using a HOBO data logger (Onset Computer Corp., model HTEA −39+123° C.). The temperature controller was programmed to meet the specifications of AR 70-38 Sec. II, Table 2-2 (Storage and Transit Conditions). Specifically, the oven was programmed to remain above 66° C. for at least 5 hrs and to reach a peak temperature of 71° C. for not more than 1 hr. The programmed parameters appear below in Table 1.

potassium ferrate(VI)
L* (lightness/darkness) [1]: 103.4 | a* (blue/red) [1]: −2.2 | appearance of disk after treatment [1]: very slight yellow tint | b* (yellow/green) [1]: 0.5 | reflectance of visible light at 450 nm [1]: 105.246 | reflectance of visible light at 750 nm [1]: 102.793 | ΔE (versus tea stain) [1]: 20.34 | L* (lightness/darkness) [2]: 107.3 | a* (blue/red) [2]: −3.2 | appearance of disk after treatment [2]: All stains were removed | b* (yellow/green) [2]: −5.5 | reflectance of visible light at 450 nm [2]: 126.369 | reflectance of visible light at 750 nm [2]: 108.805 | ΔE (cran-grape juice stain) [2]: 6.82 | stable to storage [3]: at least 82 days
